≈ marks a conversion by molar mass, not a printed value.
Tests used:
M α1‐antitrypsin = molecular target: T1, M α1‐antitrypsin (Homo sapiens, UniProt P01009); assay: Association kinetics by intrinsic tryptophan fluorescence (stopped flow), M α1‐antitrypsin; assay type: binding
T1 construct: purified from the plasma of M (wild‐type) and Z α1‐antitrypsin homozygotes; from tissue; host or cells: human plasma of M (wild-type) homozygotes
Source text: (§1) The shape of the curves and native mass spectrometry (not shown) are consistent with a single high‐affinity compound binding site. No binding of the fluorescent derivative to polymers of Z α1‐antitrypsin was observed, indicating conformational selectivity for the monomeric protein (Fig 1D). The rate of interaction of the compound with the target was monitored through changes in intrinsic tryptophan fluorescence (Dafforn et al, 1999); this property was used to determine the second‐order association rate constants for GSK716 binding to Z (4.1 × 10^4 M^−1 s^−1) and M α1‐antitrypsin (2.1 × 10^2 M^−1 s^−1; Fig 1E and F). […] Therefore, the selectivity of the compound for Z over M α1‐antitrypsin is dominated by the difference in the rate of association rather than dissociation.
(§2) Kinetic parameters of GSK716 binding to M, Z, S (Glu264Val) and Baghdad (Ala336Pro) (Haq et al, 2016) α1‐antitrypsin were measured by detecting intrinsic tryptophan fluorescence of the protein (excitation at 280 nm and detection of emission at 320 nm) on a stopped flow apparatus (Applied Photophysics) (Kim & Yu, 1996; Dafforn et al, 1999). […]

Solubility in FaSSIF = assay type: physicochemical; details: amorphous, read-out: solubility of amorphous drug substance in FaSSIF
CYP3A4 = molecular target: T2, CYP3A4 (Homo sapiens, UniProt P08684); assay: CYP3A4 TDI fold IC50 shift (human liver microsomes, midazolam); assay type: in vitro ADME; details: probe midazolam (12.5 µM), read-out: time‐dependent inhibition of CYP3A4, fold shift in IC50
T2 construct: pre‐incubated at 37°C with human liver microsomes (0.1 mg/ml); from tissue; host or cells: human liver microsomes
T2 sequence (P08684 whole entry): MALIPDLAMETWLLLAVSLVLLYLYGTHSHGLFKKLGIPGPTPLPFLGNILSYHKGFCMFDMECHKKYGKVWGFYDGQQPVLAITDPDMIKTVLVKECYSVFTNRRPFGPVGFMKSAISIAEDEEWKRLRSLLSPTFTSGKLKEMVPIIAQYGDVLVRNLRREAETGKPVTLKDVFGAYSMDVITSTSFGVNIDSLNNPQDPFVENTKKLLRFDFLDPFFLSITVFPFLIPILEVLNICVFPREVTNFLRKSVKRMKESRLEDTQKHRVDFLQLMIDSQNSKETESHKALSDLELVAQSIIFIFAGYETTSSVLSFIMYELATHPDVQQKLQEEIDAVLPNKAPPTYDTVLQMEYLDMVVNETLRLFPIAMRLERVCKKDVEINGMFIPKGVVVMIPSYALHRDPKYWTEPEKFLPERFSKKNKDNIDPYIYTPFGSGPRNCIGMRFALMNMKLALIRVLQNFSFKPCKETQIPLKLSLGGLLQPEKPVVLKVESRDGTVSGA
Protocol: Seven concentrations of GSK716 (2, 4, 10, 20, 40, 100 and 200 µM) plus a vehicle control (0.25% v/v DMSO in pre‐incubation) were pre‐incubated at 37°C with human liver microsomes (0.1 mg/ml) and NADPH (1 mM) for a range of five pre‐incubation times (5, 10, 15, 20 and 30 min) with a 0 min pre‐incubation, in duplicate. At the end of the individual pre‐incubations, an aliquot of the pre‐incubation mixture was added to an incubation mixture in a 1:20 dilution for GSK716 with the specific CYP3A4 probe substrate, midazolam (12.5 µM, equivalent to 5xKm44) and NADPH (1 mM) for a 5 min. The reactions were terminated by transferring an aliquot of incubation mixture to methanol. The samples were mixed and then centrifuged at 2,500 rpm for 30 min at 4°C. Aliquots of the supernatant were diluted with formic acid (final concentration 0.1 % v/v) in deionised water containing internal standard (metoprolol; final concentration 0.03 mg/l). Samples were analysed by LC‐MS/MS.

Dopamine D1 = Dopamine D1 (Homo sapiens, UniProt P21728); assay: Off‐target panel: Dopamine D1 (DRX); assay type: cell-based
Sequence of Dopamine D1 (P21728 whole entry): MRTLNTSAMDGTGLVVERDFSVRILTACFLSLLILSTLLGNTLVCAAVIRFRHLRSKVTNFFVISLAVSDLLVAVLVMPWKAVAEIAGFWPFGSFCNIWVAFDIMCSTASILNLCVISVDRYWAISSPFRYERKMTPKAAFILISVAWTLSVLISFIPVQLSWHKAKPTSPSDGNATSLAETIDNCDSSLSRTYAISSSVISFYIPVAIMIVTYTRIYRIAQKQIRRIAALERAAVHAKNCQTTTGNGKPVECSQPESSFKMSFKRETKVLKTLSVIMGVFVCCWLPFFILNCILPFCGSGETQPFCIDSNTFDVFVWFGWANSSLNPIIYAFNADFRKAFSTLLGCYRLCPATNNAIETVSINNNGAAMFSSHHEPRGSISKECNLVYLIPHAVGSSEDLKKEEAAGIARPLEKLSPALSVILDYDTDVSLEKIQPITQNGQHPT
Protocol: (§3) GSK716 selectivity and PK properties were profiled in order to investigate the suitability of GSK716 for progression into in vivo studies and the potential for taking it forward as a clinical candidate for testing in humans. Since GSK716 results in loss of inhibitory activity of α1‐antitrypsin, the effect of the compound was assessed on other closely related serpins. […] Furthermore, there were no off‐target effects in a panel of assays considered predictive of known safety liabilities that precluded further development of GSK716 (Table EV1).

Muscarinic M2 = molecular target: T3, Muscarinic M2 (Homo sapiens, UniProt P08172); assay: Off‐target panel: Muscarinic M2 (DRX); assay type: cell-based
T3 sequence (P08172 1-466): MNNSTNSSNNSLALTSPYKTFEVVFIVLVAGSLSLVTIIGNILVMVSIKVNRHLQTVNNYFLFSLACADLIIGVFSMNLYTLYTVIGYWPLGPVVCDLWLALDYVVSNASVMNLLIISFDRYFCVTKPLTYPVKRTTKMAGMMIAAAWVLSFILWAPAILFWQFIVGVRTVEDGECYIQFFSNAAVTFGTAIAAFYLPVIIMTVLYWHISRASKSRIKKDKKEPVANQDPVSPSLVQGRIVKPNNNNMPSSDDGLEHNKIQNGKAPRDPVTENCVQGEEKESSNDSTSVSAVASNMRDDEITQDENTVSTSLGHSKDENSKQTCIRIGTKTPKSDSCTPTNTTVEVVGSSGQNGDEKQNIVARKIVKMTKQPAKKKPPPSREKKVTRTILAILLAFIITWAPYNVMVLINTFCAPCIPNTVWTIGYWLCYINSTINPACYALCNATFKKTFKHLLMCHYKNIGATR
Protocol: as §3

NULL CHO-K1 = assay: Off‐target panel: NULL CHO-K1 Agonist (DRX); assay type: cell-based; details: Cricetulus griseus, read-out: Mean (PXC50)
Protocol: as §3

Serotonin 5HT2C = molecular target: T4, Serotonin 5HT2C (Homo sapiens, UniProt P28335); assay: Off‐target panel: Serotonin 5HT2C; assay type: cell-based
T4 sequence (P28335 33-458): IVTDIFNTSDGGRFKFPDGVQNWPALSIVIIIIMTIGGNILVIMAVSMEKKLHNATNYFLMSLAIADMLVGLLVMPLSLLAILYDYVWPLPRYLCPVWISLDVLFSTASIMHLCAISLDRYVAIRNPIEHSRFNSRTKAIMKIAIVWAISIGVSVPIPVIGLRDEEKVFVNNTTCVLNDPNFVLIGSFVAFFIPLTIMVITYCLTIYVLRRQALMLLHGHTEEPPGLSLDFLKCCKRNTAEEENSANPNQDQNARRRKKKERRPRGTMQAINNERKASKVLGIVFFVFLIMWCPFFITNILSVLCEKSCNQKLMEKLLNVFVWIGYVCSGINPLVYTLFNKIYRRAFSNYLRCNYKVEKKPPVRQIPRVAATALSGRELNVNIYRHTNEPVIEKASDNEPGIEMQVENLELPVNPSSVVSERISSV
Protocol: as §3

Vasopressin V1a = Vasopressin V1a (Homo sapiens, UniProt P37288); assay: Off‐target panel: Vasopressin V1a; assay type: cell-based; details: Antagonist, read-out: Mean (PXC50) (converted)
Sequence of Vasopressin V1a (P37288 whole entry): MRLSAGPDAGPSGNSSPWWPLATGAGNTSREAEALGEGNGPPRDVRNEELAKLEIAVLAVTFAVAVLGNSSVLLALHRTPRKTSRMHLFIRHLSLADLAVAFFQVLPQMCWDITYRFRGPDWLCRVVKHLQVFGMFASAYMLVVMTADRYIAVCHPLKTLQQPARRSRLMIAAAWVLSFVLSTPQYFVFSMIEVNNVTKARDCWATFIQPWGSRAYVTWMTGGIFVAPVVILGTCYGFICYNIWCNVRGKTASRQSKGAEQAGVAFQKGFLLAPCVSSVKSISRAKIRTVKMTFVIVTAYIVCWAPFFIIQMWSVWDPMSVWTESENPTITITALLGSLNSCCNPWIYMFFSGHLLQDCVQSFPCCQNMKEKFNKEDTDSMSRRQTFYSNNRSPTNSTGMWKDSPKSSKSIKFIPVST
Protocol: as §3

Z α1‐antitrypsin = Z α1‐antitrypsin (Homo sapiens, UniProt P01009, E366K); assay: Competition binding assay with Alexa488‐labelled analogue of GSK716, Z α1‐antitrypsin; design: purified from the plasma of Z α1‐antitrypsin homozygotes; from tissue; host or cells: human plasma of Z α1-antitrypsin homozygotes; details: n = 18, mean ± SD, read-out: mean pKD (converted)
Sequence of Z α1‐antitrypsin (P01009 25-418 E366K): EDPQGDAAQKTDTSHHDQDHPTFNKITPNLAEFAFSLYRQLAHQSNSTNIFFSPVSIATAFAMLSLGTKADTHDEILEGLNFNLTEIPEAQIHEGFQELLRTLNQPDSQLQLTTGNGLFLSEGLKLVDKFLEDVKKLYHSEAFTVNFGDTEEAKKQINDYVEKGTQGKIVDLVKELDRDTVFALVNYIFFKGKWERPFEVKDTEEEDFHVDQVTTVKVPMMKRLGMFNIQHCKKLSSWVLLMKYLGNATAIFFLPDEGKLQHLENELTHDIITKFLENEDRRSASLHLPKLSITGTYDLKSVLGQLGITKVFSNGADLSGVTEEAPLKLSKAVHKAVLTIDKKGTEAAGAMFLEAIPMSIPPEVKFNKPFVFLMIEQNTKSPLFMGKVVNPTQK
Source text: as §1, §2

T1 sequence (P01009 25-418): as the sequence (P01009 25-418 E366K) above, with K342E counted along it

CCC[C@@H](NC(=O)c1cccc2c1CC(=O)N2)[C@@H](O)c1cccc(F)c1C [GSK716]
koff (M α1‐antitrypsin; calculated from association rate constant and affinity, read-out: first‐order dissociation rate constant): 1.6e-05 s⁻¹ | kon (M α1‐antitrypsin; read-out: second‐order association rate constant): 210 M⁻¹ s⁻¹ | solubility (Solubility in FaSSIF): 0.969 mg/mL (≈ 2620 µM) | IC50 shift (CYP3A4): 1.59 | IC50 (Dopamine D1): > 100 µM | EC50 (Muscarinic M2): 5.01 µM | IC50 (Muscarinic M2): > 50.1 µM | EC50 (NULL CHO-K1): > 100 µM | EC50 (Serotonin 5HT2C): > 25.1 µM | IC50 (Serotonin 5HT2C): > 25.1 µM | IC50 (Vasopressin V1a): 39.8 µM | Kd (Z α1‐antitrypsin): 0.00316 µM

Source: publication PMC7933930, “Development of a small molecule that corrects misfolding and increases secretion of Z α1‐antitrypsin” (EMBO Molecular Medicine, 2021)
